Values quoted from earlier work, collected in patent US9974792B2, “Methods for treating cancers” (Gilead Sciences, Inc., priority 2013, dated 2018).

Assays:
[1] = tested on: subjects with B-cell malignancies, CLL/SLL; details: cited from earlier work
CLL subjects = details: rituximab monotherapy; CLL subjects with similar median age and prior therapies; cited from earlier work

Molecule | PFS ([1]; 11 subjects with CLL/SLL) [months] | overall progression-free survival (PFS) ([1]; participants treated in the phase 2 portion of the study) [weeks] | Response rate ([1]; six subjects with partial lymph-node reduction of at least 50%) [%] | 24-week PFS (CLL subjects) [%]
COc1cc(Nc2ncc(F)c(Nc3ccc4c(n3)N(COP(=O)(O)O)C(=O)C(C)(C)O4)n2)cc(OC)c1OC [fostamatinib] | 6.4 | 18 | 54.5 | 
rituximab: monoclonal antibody (anti-CD20), monotherapy comparator in CLL subjects |  |  |  | 46
